# Columns and labels:
# [1] = target: T1, histone H4 N-terminal tail lysines acetylated by Hat1 (Homo sapiens, UniProt P62805); test: In vitro histone acetylation (HAT) assay, Hat1; type: biochemical
# T1 construct: Acid extracted histones from untreated Hela cells; endogenous in cells; host or cells: HeLa
# Description: (§1) Inhibition of histone acetylation and hypoacetylated histones are by nature correlated with transcriptional silencing and downregulation of genes. How then can lunasin, which inhibits H3 and H4 N-terminal tail acetylation, act as a transcriptional activator? To answer this question, the inventors determined the effect of lunasin on the acetylation of specific lysine residues on the H4 N-terminal tail ([…]) using the PCAF, Hat1 and p300 histone acetylase enzymes and acid-extracted core histones as substrate.
# (§2) Acid extracted histones from untreated Hela cells and purified recombinant histone H4 are used as templates in an in vitro histone acetylation (HAT) assay. Histone templates are pre-incubated in the presence or absence of 2 μM lunasin peptide for 30 min at RT before the addition of acetyl co-A, HAT reaction buffer and histone acetylase enzymes (p300, HAT1 and PCAF). HAT reaction mixture is incubated with shaking at 30° C. for 1 h before stopping the reaction by adding protein sample buffer and boiling for 5 min. Samples are run on 10-20% SDS-PAGE gels, blotted onto nitrocellulose membranes and immunostained with antibodies against histone H4 with specific N-terminal lysine acetylation sites at […], 8, 12 and 16. Densitometer readings are normalized using signals from untreated histone templates.
# [2] = target: deacetylated histone H4 (Homo sapiens, UniProt P62805); test: Binding to histone H4 (FIG. 8)
# [3] = tested on: H4-Lys16 acetylation at THBS gene promoter/CpG island; test: PCR of ChIP DNA isolated with acetylated H4-Lys16 antibody; type: cell-based, human; conditions: lunasin-treated RWPE-1 (non-tumorigenic)
# Description: (§3) THBS contains a CpG island within its promoter which together with other chemopreventative genes and tumor suppressors are frequently found to be hypermethylated during cancer formation. Since DNA hypermethylation of CpG islands is associated with histone hypoacetylation, we wanted to determine if there is a loss of H4-Lys16 acetylation within this region of the gene by conducting PCR on chromatin immunoprecipitated (ChiP) DNA using acetylated H4-Lys16 antibody and primers derived from the promoter/CpG island and exon 11 of the thrombospondin gene. […] The loss of H4-Lys16 acetylation on CpG island of the THBS promoter in tumor prostate cells leads to the silencing of the THBS gene and the inability of lunasin to increase H4-Lys16 acetylation and upregulate expression in tumorigenic cell lines.
# (§4) THBS protein levels were determined in RWPE-1 and -2 cell lines treated with or without lunasin. PCR was conducted on ChIP DNA isolated with acetylated H4-Lys16 antibody, using primers derived from the promoter and exon 11 of the THBS gene.
# [4] = tested on: E1A-transfected C3H10T1/2 cells; conditions: cited from earlier work
# [5] = tested on: female SENCAR mice; conditions: topical application; cited from earlier work
# [6] = target: T2, histone H4 N-terminal tail lysines acetylated by PCAF (Homo sapiens, UniProt P62805); test: In vitro histone acetylation (HAT) assay, PCAF; type: biochemical; conditions: 2 μM lunasin
# T2 construct: Acid extracted histones from untreated Hela cells; endogenous in cells; host or cells: HeLa
# Description: as §1, §2
# [7] = tested on: p21/WAF1/Cip1 in NIH 3T3 cells; conditions: NIH 3T3 cells pre-treated 24 h, eight days after E1A transfection; cited from earlier work
# [8] = tested on: C3H 10T1/2 mouse embryo fibroblast cells; conditions: C3H/T101/2 cells pre-treated 24 hour with lunasin (as little as 125 nM), then DMBA and MCA; six weeks assay; cited from earlier work
# [9] = tested on: E1A-transfected mouse fibroblast NIH 3T3 cells; conditions: E1A-transfected NIH 3T3 cells; cited from earlier work
# [10] = tested on: UGT1A family of genes in HepG2 liver cells; test: UGT1A expression in HepG2 cells (Western blot, RT-PCR); type: cell-based; conditions: 24 h
# Experimental: HepG2 liver cells are grown in cell culture in the presence or absence of 10 uM lunasin peptide. After 24 h exposure, cells are harvested and total protein and RNA are harvested. Western blots are immunostained with UGT1A1 antibody and densitometer signals normalized using actin controls. […] Real-time quantitative RT-PCR will be conducted to measure differences in transcription levels.
# [11] = tested on: tumorigenic prostate epithelial cell line (RWPE-2); test: Microarray gene expression profile after 24 hour exposure to lunasin; type: cell-based, human
# Experimental: (§5) In the present disclosure the investigators analyzed changes in gene expression profiles of normal (RWPE-1) and malignant (RWPE-2) prostate epithelial cell lines after 24 hour exposure to synthetic lunasin. Results disclosed herein support the anti-neoplastic property of lunasin and help elucidate its molecular mechanism. […] It is therefore reasoned that lunasin suppresses neoplastic transformation by up-regulating various genes.
# (§6) To determine the genetic changes associated with lunasin treatment, the gene expression profiles of non-tumorigenic (RWPE-1) (SEQ ID No.2) and tumorigenic (RWPE-2) (SEQ ID No.2) prostate cells treated with synthetic lunasin were assessed using microarray analysis.
# [12] = tested on: non-tumorigenic prostate epithelial cell line (RWPE-1); test: as above; type: cell-based, human
# Experimental: as §5, §6
# [13] = target: T3, histone H4 N-terminal tail lysines acetylated by p300 (Homo sapiens, UniProt P62805); test: In vitro histone acetylation (HAT) assay, p300; type: biochemical
# T3 construct: Acid extracted histones from untreated Hela cells; endogenous in cells; host or cells: HeLa
# Description: as §1, §2
# [14] = tested on: thrombospondin (THBS); test: Western blot of THBS protein in RWPE-1 and RWPE-2 cells; type: cell-based, human
# Description: as §3, §4
# [15] = acid-extracted core histones, 2 μM lunasin
# [16] = basal acid-extracted core histones, 2 μM lunasin
# [17] = lunasin-treated acid-extracted core histones, 2 μM lunasin
# [18] = recombinant H4, same in lunasin-treated and non-treated
# [19] = RWPE-1, 24 hour exposure to 2 micromolar lunasin
substance,measurement,setting,value
"lunasin: 43 amino acid small subunit of a soybean 2S albumin; residues 22-64 of SEQ ID NO:2 of U.S. Pat. No. 6,544,956; used as synthetic peptide",H4-Lys 5 acetylation by Hat1,[1]; [15],did not reduce
same,H4-Lys12 acetylation by Hat1,[1]; [15],did not reduce
same,inhibition of H4-Lys 8 acetylation by Hat1,[1]; [16],30%
same,increase in H4-Lys16 acetylation by Hat1,[1]; [17],30%
same,"Lys16 acetylation by Hat1, recombinant H4 as substrate",[1]; [18],loss of Lys16 acetylation
same,binding preference for histone H4,[2],preferentially binds to deacetylated histone H4
same,H4-Lys16 acetylation at THBS gene (ChIP PCR),[3],significant increase
same,apoptosis,[4],induce apoptosis
same,skin tumorigenesis,[5],inhibited skin tumorigenesis
same,H4-Lys 5 acetylation by pCAF,[6]; acid-extracted core histones,did not reduce
same,inhibition of H4-Lys 8 acetylation by PCAF,[6]; basal acid-extracted core histones,33%
same,increase in p21/WAF1/Cip1 protein levels,[7],five-fold increase
same,reduction of foci formation,[8],70%
same,foci formation,[9],suppress foci formation
same,UGT1A1 protein levels (Western blot),[10]; 10 uM lunasin,upregulates
same,UGT1A1 expression (RT-PCR),[10]; 10 μM lunasin,significant upregulation
same,UGT1A3 expression (RT-PCR),[10]; 10 μM lunasin,significant upregulation
same,UGT1A6 expression (RT-PCR),[10]; 10 μM lunasin,significant upregulation
same,UGT1A10 expression (RT-PCR),[10]; 10 μM lunasin,significant upregulation
same,Genes up-regulated (greater than twofold change),"[11]; RWPE-2, 2 μM lunasin for 24 hours, 14500 genes interrogated",only two genes were up-regulated
same,Genes down-regulated,"[11]; tumorigenic epithelial cells, 2 μM lunasin",No genes were down-regulated
same,Number of genes up-regulated (greater than twofold change),"[12]; RWPE-1, 2 μM lunasin for 24 hours, 14500 genes interrogated",121 genes
same,"Fold-change BNIP3, NIP3",[12]; [19],2.05
same,"Fold-change BUB1B, BUBR1",[12]; [19],2.23
same,"Fold-change ERBB2IP, ERBIN",[12]; [19],2.23
same,Fold-change MAD2L1,[12]; [19],2.12
same,Fold-change PORIMIN,[12]; [19],2.26
same,"Fold-change PRKAR1A, PKA",[12]; [19],2.45
same,"Fold-change PRKCL2, PRK2",[12]; [19],2.33
same,Fold-change PSMC6,[12]; [19],2.58
same,Fold-change RANBP2,[12]; [19],2.36
same,Fold-change SMURF2,[12]; [19],2.29
same,Fold-change SPTLC1,[12]; [19],2.12
same,"Fold-change THBS1, TSP1",[12]; [19],2.05
same,Fold-change TOB1,[12]; [19],2.32
same,Fold-change TTK,[12]; [19],2.08
same,Fold-change UBE1C,[12]; [19],2.15
same,Fold-change USP1,[12]; [19],2.23
same,SP3 expression in microarray,[12]; at 24 hours,upregulated
same,Genes down-regulated,"[12]; non-tumorigenic epithelial cells, 2 μM lunasin",No genes were down-regulated
same,p21/WAF1/Cip1 expression in microarray,[12]; within 24 hours,did not show upregulation
same,H4-Lys12 acetylation by p300,[13]; [15],did not reduce
same,inhibition of H4-Lys 8 acetylation by p300,[13]; [16],23.5%
same,increase in H4-Lys16 acetylation by p300,[13]; [17],22%
same,"Lys16 acetylation by p300, recombinant H4 as substrate",[13]; [18],loss of Lys16 acetylation
same,THBS protein level (Western blot),[14]; non-tumorigenic RWPE-1 cell line,upregulated
same,THBS protein level (Western blot),[14]; tumorigenic RWPE-2 prostate cells,silenced

# Source: patent US9678060B2, “Lunasin-induced regulation of disease-related gene expression” (THE REGENTS OF THE UNIVERSITY OF CALIFORNIA, priority 2007, dated 2017)
